As usually defined, the Ki is a measure of affinity in units of concentration, obtained from inhibition or displacement.

For the first assay, the target named is c-Met (Homo sapiens, UniProt P08581). Put plainly: Ki determination for the inhibition of c-Met kinase activity (standard coupled enzyme system). The class given is biochemical. To be noted: coupled enzyme system, 200 μM ATP, 80 nM c-Met, 30° C.; number printed instead of class symbol; read-out: c-Met Ki. Put shortly: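 The kinase (80 nM) turned over polyGluTyr (10 μM) with ATP (200 μM, added to start), coupled to NADH oxidation via pyruvate kinase/lactate dehydrogenase at pH 7.5 HEPES, 1.5% DMSO.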
Chain of c-Met (P08581 25-1390): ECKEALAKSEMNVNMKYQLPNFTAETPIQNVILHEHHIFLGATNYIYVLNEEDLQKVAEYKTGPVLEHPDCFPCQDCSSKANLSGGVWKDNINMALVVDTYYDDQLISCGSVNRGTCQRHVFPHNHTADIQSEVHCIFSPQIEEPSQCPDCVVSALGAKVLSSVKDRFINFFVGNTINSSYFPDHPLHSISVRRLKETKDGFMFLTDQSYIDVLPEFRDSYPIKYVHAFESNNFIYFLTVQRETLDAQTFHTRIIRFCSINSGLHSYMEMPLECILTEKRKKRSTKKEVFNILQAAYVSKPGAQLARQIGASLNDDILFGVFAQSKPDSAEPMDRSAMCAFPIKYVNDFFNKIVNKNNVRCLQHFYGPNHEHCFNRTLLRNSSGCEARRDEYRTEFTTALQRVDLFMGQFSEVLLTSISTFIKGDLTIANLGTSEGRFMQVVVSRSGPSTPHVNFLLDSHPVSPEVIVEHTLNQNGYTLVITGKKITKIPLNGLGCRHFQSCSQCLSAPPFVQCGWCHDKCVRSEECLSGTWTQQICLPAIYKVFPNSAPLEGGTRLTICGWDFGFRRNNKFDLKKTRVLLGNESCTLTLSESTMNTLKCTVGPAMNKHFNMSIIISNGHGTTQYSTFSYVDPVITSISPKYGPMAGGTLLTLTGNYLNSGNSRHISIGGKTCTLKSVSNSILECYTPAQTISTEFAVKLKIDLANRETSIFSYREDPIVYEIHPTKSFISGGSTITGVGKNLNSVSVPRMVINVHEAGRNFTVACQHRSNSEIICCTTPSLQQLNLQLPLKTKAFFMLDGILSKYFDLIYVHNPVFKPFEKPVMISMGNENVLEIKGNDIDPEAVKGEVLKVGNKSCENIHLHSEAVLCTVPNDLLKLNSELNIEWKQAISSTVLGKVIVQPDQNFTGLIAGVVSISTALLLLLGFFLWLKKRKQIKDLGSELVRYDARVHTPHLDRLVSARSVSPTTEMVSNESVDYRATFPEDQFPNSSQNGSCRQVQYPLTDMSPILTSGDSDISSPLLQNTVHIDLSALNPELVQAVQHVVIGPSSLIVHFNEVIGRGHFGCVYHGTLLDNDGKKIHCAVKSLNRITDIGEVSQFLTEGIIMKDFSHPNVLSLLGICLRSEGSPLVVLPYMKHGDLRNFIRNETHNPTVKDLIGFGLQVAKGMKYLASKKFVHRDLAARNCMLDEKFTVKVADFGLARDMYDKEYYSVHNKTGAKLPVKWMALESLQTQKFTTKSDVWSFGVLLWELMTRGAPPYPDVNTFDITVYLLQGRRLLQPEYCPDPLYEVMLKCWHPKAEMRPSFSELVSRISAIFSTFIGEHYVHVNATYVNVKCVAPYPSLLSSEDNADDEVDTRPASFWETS
Turning to `COc1ccc(C2(c3nnc4ccc(Nc5cccc(Cl)c5)nn34)CC2)cc1` [Compound 356], the Ki was determined as 100 nM.

The same assay, now with this note: coupled enzyme system, 200 μM ATP, 80 nM c-Met, 30° C.; read-out: c-Met Ki.
As to `COc1ccc(Cc2nnc3n2N=C(c2ccccc2)CS3)cc1` [Compound 530], the Ki is 100 to 2000 nM.

`CN1C2CCC1CC(Nc1ccc3nnc(Cc4ccc(O)cc4)n3n1)C2` (stereo not shown) [Compound 417]: the Ki was more than 2000 nM.

For `O=C(Nc1ccc2nnc(Cc3ccc(O)cc3)n2n1)C1CCCCC1` [Compound 399], the Ki is more than 2000 nM.

Regarding `Cc1ccc(Cl)cc1Nc1ccc2nnc(Cc3ccc(O)cc3)n2n1` [Compound 358], the Ki was less than 100 nM.

With `COc1ccc(Cc2nnc3n2N=C(c2ccccc2)CS3)cc1F` [Compound 531], the Ki is more than 2000 nM.

Regarding `COc1cc(NCc2nnc3ccc(Nc4cccc(Cl)c4)nn23)cc(OC)c1OC` [Compound 346], the Ki is more than 2000 nM.

Regarding `CS(=O)(=O)c1ccc(Cc2nnc3n2N=C(c2ccccc2)CS3)cc1` [Compound 528], the Ki was more than 2000 nM.

In the case of `CC1=Nn2c(Cc3ccc(O)cc3)nnc2SC1C` (stereo not shown) [Compound 536], the Ki is more than 2000 nM.

Consider `CC(=O)Nc1cccc(OCc2nnc3ccc(Nc4cccc(Cl)c4)nn23)c1` [Compound 468], for which the Ki was 100 to 2000 nM.

For the compound `Clc1cccc(Nc2ccc3nnc(COc4ccc(Cl)nc4)n3n2)c1` [Compound 375], the Ki was more than 2000 nM.

As for `Oc1ccc(NCc2nnc3ccc(Nc4cccc(Cl)c4)nn23)c2cccnc12` [Compound 352], the Ki is more than 2000 nM.

For the compound `Clc1cccc(Nc2ccc3nnc(CNc4cccc(OCc5ccccc5)c4)n3n2)c1` [Compound 333], the Ki was more than 2000 nM.

On to `CC[C@H](CO)Nc1ccc2nnc(Cc3ccc(O)cc3)n2n1` [Compound 312], for which the Ki lay in the range of 100 to 2000 nM.

For the compound `O=C1COc2ccc(C3=Nn4c(Cc5ccc(O)cc5)nnc4SC3)cc2N1` [Compound 535], the Ki fell in the range of 100 to 2000 nM.

As to `CN(C)S(=O)(=O)Nc1cccc(Cc2nnc3ccc(Nc4cccc(Cl)c4)nn23)c1` [Compound 404], the Ki is more than 2000 nM.

For the compound `C[C@@H](c1ccc(O)cc1)c1nnc2ccc(Sc3ncc[nH]3)nn12` [Compound 511], the Ki was more than 2000 nM.

With `COC[C@@H](C)Nc1ccc2nnc(Cc3ccc(O)cc3)n2n1` [Compound 304], the Ki lay within 100 to 2000 nM.

For the compound `Clc1cccc(Nc2ccc3nnc(CCc4c[nH]cn4)n3n2)c1` [Compound 395], the Ki was more than 2000 nM.

As for `Clc1cccc(Nc2ccc3nnc(C4(c5ccc6c(c5)OCO6)CC4)n3n2)c1` [Compound 400], the Ki was less than 100 nM.

For `Clc1cccc(Nc2ccc3nnc(COc4cccc(Cl)n4)n3n2)c1` [Compound 376], the Ki is more than 2000 nM.

Consider `NC(=O)c1ncccc1OCc1nnc2ccc(Nc3cccc(Cl)c3)nn12` [Compound 478], for which the Ki was more than 2000 nM.

With `COc1ccc(Cc2nnc3ccc(Nc4cccc(Cl)c4)nn23)cc1C(N)=O` [Compound 496], the inhibition constant (Ki) is more than 2000 nM.

In the case of `c1ccc(C2=Nn3c(Cc4ccc5c(c4)OCO5)nnc3SC2)cc1` [Compound 523], the Ki was 100 to 2000 nM.

Regarding `Fc1ccc2[nH]cc(Cc3nnc4ccc(Nc5cccc(Cl)c5)nn34)c2c1` [Compound 459], the Ki was more than 2000 nM.

Take `O=C(Nc1ccc2nnc(Cc3ccc(O)cc3)n2n1)c1ccccc1` [Compound 397]: the Ki was more than 2000 nM.

In the case of `Clc1cccc(Nc2ccc3nnc(COc4ccc5cccnc5c4)n3n2)c1` [Compound 423], the Ki is less than 100 nM.

`C[C@H](c1ccc(O)cc1)c1nnc2ccc(Nc3cccc(Cl)c3)nn12` [Compound 319]: the Ki is less than 100 nM.

As to `O=C(O)c1cc(O)ccc1NCc1nnc2ccc(Nc3cccc(Cl)c3)nn12` [Compound 340], the Ki is more than 2000 nM.

Regarding `CCOC(=O)c1sc(Nc2ccc3nnc([C@@H](C)c4ccc(O)cc4)n3n2)nc1C` [Compound 513], the Ki fell in the range of 100 to 2000 nM.

As to `CC(=O)N[C@@H]1CCCC[C@H]1Nc1ccc2nnc([C@@H](C)c3ccc(O)cc3)n2n1` [Compound 450], the Ki was more than 2000 nM.

Regarding `Oc1ccc(Cc2nnc3ccc(Nc4nncs4)nn23)cc1` [Compound 482], the Ki is more than 2000 nM.

As to `COCCC(=O)N[C@H]1CCCC[C@H]1Nc1ccc2nnc([C@@H](C)c3ccc(O)cc3)n2n1` [Compound 447], the inhibition constant (Ki) was in the range of 100 to 2000 nM.

`Fc1ccc(Cc2nnc3n2N=C(c2cccs2)CS3)cc1` [Compound 546]: the Ki was 100 to 2000 nM.

`Clc1cccc(Nc2ccc3nnc(Cn4nc(Cl)c5ccccc54)n3n2)c1` [Compound 486]: the Ki is more than 2000 nM.

As to `Clc1cccc(Nc2ccc3nnc(CNc4n[nH]c5ncccc45)n3n2)c1` [Compound 519], the Ki is less than 100 nM.

Regarding `COc1ccc(Cc2nnc3ccc(Nc4cccc(C#N)c4)nn23)cc1` [Compound 287], the Ki is less than 100 nM.

Consider `N#Cc1ccc(Cc2nnc3ccc(Nc4cccc(Cl)c4)nn23)cc1` [Compound 474], for which the Ki is 100 to 2000 nM.

With `C[C@@H](c1ccc(O)cc1)c1nnc2ccc(Nc3cc(Cl)cnc3Cl)nn12` [Compound 509], the Ki is less than 100 nM.

For the compound `Oc1cccc(NCc2nnc3ccc(Nc4cccc(Cl)c4)nn23)c1` [Compound 338], the Ki was 100 to 2000 nM.

Turning to `COc1cc(NCc2nnc3ccc(Nc4cccc(Cl)c4)nn23)c(C(C)=O)cc1OC` [Compound 331], the Ki is more than 2000 nM.

As for `Clc1cccc(Nc2ccc3nnc(CNc4ccc5cn[nH]c5c4)n3n2)c1` [Compound 487], the Ki fell in the range of 100 to 2000 nM.

As for `Clc1ccc(OCc2nnc3ccc(Nc4cccc(Cl)c4)nn23)cc1` [Compound 380], the Ki is more than 2000 nM.

`Clc1cccc(Nc2ccc3nnc(Cn4ccc5cccnc54)n3n2)c1` [Compound 462]: the inhibitory constant (Ki) is more than 2000 nM.

Take `Clc1cccc(Nc2ccc3nnc(Cn4cncn4)n3n2)c1` [Compound 517]: the Ki lay in the range of 100 to 2000 nM.

The same assay, now with this note: coupled enzyme system, 200 μM ATP, 10 μM polyGluTyr, 80 nM c-Met, 30° C.; read-out: c-Met Ki.
As for `CC(C)[C@H](C)Nc1ccc2nnc(Cc3ccc(O)cc3)n2n1` [Compound 193], the Ki lay within 100 to 2000 nM.

Regarding `Oc1ccc(Cc2nnc3ccc(NC4c5ccccc5CC4O)nn23)cc1` (stereo not shown) [Compound 217], the Ki lay in the range of 100 to 2000 nM.

Take `Oc1ccc(Cc2nnc3ccc(NCC4CCCO4)nn23)cc1` (stereo not shown) [Compound 187]: the inhibitory constant (Ki) is 100 to 2000 nM.

Turning to `Cc1cc(Nc2ccc3nnc(Cc4ccc(O)cc4)n3n2)ccc1Cl` [Compound 215], the Ki is less than 100 nM.

Consider `Fc1cccc(Nc2nn3c(Cc4ccc5c(c4)OCO5)nnc3s2)c1` [Compound 107], for which the Ki was less than 100 nM.

Regarding `COc1cccc(Nc2nn3c(Cc4ccc(O)c(Cl)c4)nnc3s2)c1` [Compound 36], the Ki lay within 100 to 2000 nM.

As for `Oc1ccc(Cc2nnc3sc(Nc4cccc(F)c4F)nn23)cc1Cl` [Compound 128], the Ki was less than 100 nM.

In the case of `CC1CCC(Nc2ccc3nnc(Cc4ccc(O)cc4)n3n2)CC1` (stereo not shown) [Compound 271], the Ki is 100 to 2000 nM.

As for `CNC(=O)c1cccc(Nc2ccc3nnc(Cc4ccc(O)cc4)n3n2)c1` [Compound 232], the Ki lay in the range of 100 to 2000 nM.

For the compound `Oc1ccc(Cc2nnc3ccc(N4CCC(CCc5ccccc5)C4)nn23)cc1` (stereo not shown) [Compound 205], the Ki lay within 100 to 2000 nM.

For `FC(F)(F)c1cccc(Nc2ccc3nnc(Cc4ccc5c(c4)OCO5)n3n2)c1` [Compound 226], the Ki lay in the range of 100 to 2000 nM.

Consider `Clc1ccccc1Nc1nn2c(Cc3ccc4c(c3)OCO4)nnc2s1` [Compound 68], for which the inhibitory constant (Ki) lay in the range of 100 to 2000 nM.

For `Oc1ccc(CCc2nnc3sc(Nc4cccc(Cl)c4)nn23)cc1` [Compound 94], the Ki was more than 2000 nM.

Turning to `Oc1cccc(CCc2nnc3sc(Nc4cccc(F)c4F)nn23)c1` [Compound 121], the Ki was more than 2000 nM.

In the case of `COc1ccc(NC(=O)Nc2nn3c(Cc4ccc(O)cc4)nnc3s2)cc1` [Compound 115], the Ki was more than 2000 nM.

In the case of `CN(C)c1ccc(Cc2nnc3ccc(-c4ccccc4)nn23)cc1` [Compound 212], the Ki is more than 2000 nM.

For the compound `CC(c1nnc2sc(Nc3cccc(Cl)c3)nn12)n1ccc2ncccc21` (stereo not shown) [Compound 161], the Ki was less than 100 nM.

As to `c1ccc(-c2ccc3nnc(CNc4cccnc4)n3n2)cc1` [Compound 208], the Ki is more than 2000 nM.

For `COc1cccc(Nc2ccc3nnc(Cc4ccc(O)cc4)n3n2)c1` [Compound 184], the Ki is less than 100 nM.

With `COc1cccc(Nc2nn3c(Cc4ccc(O)c(F)c4)nnc3s2)c1` [Compound 35], the Ki was 100 to 2000 nM.

In the case of `Oc1ccc(Cc2nnc3sc(NCC4CCCO4)nn23)cc1` (stereo not shown) [Compound 17], the Ki fell in the range of 100 to 2000 nM.

Regarding `COc1ccc([C@H](C)c2nnc3sc(Nc4cccc(Cl)c4)nn23)cc1` [Compound 157], the Ki is 100 to 2000 nM.

Regarding `Oc1ccc(Cc2nnc3sc(Nc4cccc(Cl)c4Cl)nn23)cc1` [Compound 45], the Ki was less than 100 nM.

Turning to `COc1ccc(Cc2nnc3ccc(Nc4cccc(Cl)c4)nn23)cc1` [Compound 238], the Ki is less than 100 nM.

Turning to `OCCc1cccc(Nc2ccc3nnc(Cc4ccc(O)cc4)n3n2)c1` [Compound 264], the Ki was less than 100 nM.

Consider `Oc1ccc(Cc2nnc3sc(Nc4cccnc4)nn23)cc1` [Compound 81], for which the Ki is less than 100 nM.

Take `c1ccc([C@@H]2C[C@H]2c2nn3c(Cc4ccc5c(c4)OCO5)nnc3s2)cc1` [Compound 47]: the Ki is more than 2000 nM.

For the compound `OCCc1cccc(Nc2ccc3nnc(Cc4ccc(O)c(F)c4)n3n2)c1` [Compound 265], the Ki lay within 100 to 2000 nM.

For `Oc1ccc(Cc2nnc3ccc(Cl)nn23)cc1` [Compound 174], the Ki fell in the range of 100 to 2000 nM.

For `CCC(CC)Nc1ccc2nnc(Cc3ccc(O)cc3)n2n1` [Compound 281], the Ki lay in the range of 100 to 2000 nM.

As for `Cc1cccc(Nc2nn3c(Cn4ccc5ncccc54)nnc3s2)c1` [Compound 135], the Ki fell in the range of 100 to 2000 nM.

In the case of `CC(O)c1cccc(Nc2ccc3nnc(Cc4ccc5c(c4)OCO5)n3n2)c1` (stereo not shown) [Compound 258], the Ki lay in the range of 100 to 2000 nM.

Take `COc1ccc(Nc2nn3c(C(C)c4ccc(O)cc4)nnc3s2)cc1` (stereo not shown) [Compound 40]: the Ki was less than 100 nM.

In the case of `Oc1cccc(Cc2nnc3sc(Nc4cccc(F)c4)nn23)c1` [Compound 122], the Ki is 100 to 2000 nM.
